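Exposure lasted 48 hours, with cells grown in 96-well plates and compounds tested at five concentrations. Here, GI50 denotes the concentration required for 50% inhibition of growth. TGI marks complete inhibition of growth.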
Key:
Assay in all cases: inhibition of tumour cell growth, NCI panel, 48 h
[1] = test system: EKVX NSCLC
[2] = test system: HCT-116 colon
[3] = test system: HOP-92 NSCLC
[4] = test system: K-562 leukemia
[5] = test system: KM12 colon
[6] = test system: M14 melanoma
[7] = test system: NCI-H23 lung
[8] = test system: NCI-H460 lung
[9] = test system: OVCAR-5 ovarian
[10] = test system: OVCAR-8 ovarian

Row | SMILES | TGI [1] [µM] | TGI [2] [µM] | TGI [3] [µM] | TGI [4] [µM] | TGI [5] [µM] | TGI [6] [µM] | TGI [7] [µM] | TGI [8] [µM] | TGI [9] [µM] | TGI [10] [µM] | GI50 [1] [µM] | GI50 [2] [µM] | GI50 [3] [µM] | GI50 [4] [µM] | GI50 [5] [µM] | GI50 [6] [µM] | GI50 [7] [µM] | GI50 [8] [µM] | GI50 [9] [µM] | GI50 [10] [µM]
1 | CC1NC(=O)C2=C1C(N)=NC(=O)C2 (stereo unspecified) | > 100 | > 100 | > 100 | > 100 | > 100 | > 100 | > 100 | > 100 | > 100 | > 100 |  |  |  |  |  |  |  |  |  | 
2 | Cc1ccc(-c2nc([P+](c3ccccc3)(c3ccccc3)c3ccccc3)c(Nc3ccccc3)o2)cc1 | 2.18 | 1.22 | 1.16 | 1.27 | 1.83 | 2.08 | 1.28 | 1.8 | 2.68 | 3.27 | 0.815 | 0.265 | 0.188 | 0.326 | 0.519 | 0.655 | 0.344 | 0.515 | 1.31 | 1.05
3 | C[C@]12CCNC(=O)C=C1CC[C@@H]1C2CC[C@@]2(C)C1CC[C@@H]2OC(=O)COc1ccc(N(CCCl)CCCl)cc1 (stereo partly specified) | 40.3 | 13.9 | 23.3 | 46.3 | 24.4 | 20.3 | 20.2 | 7.26 | 29.5 | 17.8 |  |  |  |  |  |  |  |  |  | 
4 | NNC(=O)c1ccc(OCc2nc3ccccc3[nH]2)cc1 | > 100 | > 100 | > 100 | > 100 | > 100 | > 100 | > 100 | > 100 | > 100 | > 100 |  |  |  |  |  |  |  |  |  | 
5 | CSCCCNC(=O)c1csc(-c2csc(CCNC(=O)CNC(=O)CNC(=O)OC(C)(C)C)n2)n1 | > 100 | > 100 | > 100 | > 100 | > 100 | > 100 | > 100 | > 100 | > 100 | > 100 |  |  |  |  |  |  |  |  |  | 
6 | C=CCOC(=O)C1CCC(=O)N1C(=O)C(Cl)Cl (stereo unspecified) | > 100 | > 100 | > 100 | > 100 | > 100 | > 100 | > 100 | > 100 | > 100 | > 100 |  |  |  |  |  |  |  |  |  | 
7 | O=C(C/C(CCC(=O)N(Cc1ccccc1)Cc1ccccc1)=N/Nc1ccc([N+](=O)[O-])cc1[N+](=O)[O-])c1ccccc1 | > 100 | > 100 | > 100 | > 100 | > 100 | > 100 | > 100 | > 100 | > 100 | > 100 |  |  |  |  |  |  |  |  |  | 
8 | Nc1nc(=O)n([C@@H]2CS[C@H](CO)O2)cc1F | > 100 | > 100 | > 100 | > 100 | > 100 | > 100 | > 100 | > 100 | > 100 | > 100 | > 100 | > 100 | > 100 | > 100 | > 100 | > 100 | > 100 | > 100 | > 100 | > 100
9 | CCOC(=O)c1cnn2c3ccccc3n(S(=O)(=O)c3ccc(OC)cc3)c12 | > 100 | > 50.4 | 16 | > 100 | 21.9 | > 100 | > 100 | > 100 | > 100 | > 100 | 0.583 | 0.305 | 0.67 | 0.0553 | 0.196 | 0.211 | 0.393 | 0.753 | 0.558 | 0.551
10 | O=c1[nH]c(=O)n(C2OC(CO)C(O)C2O)cc1OCC(F)(F)F (stereo unspecified) | > 100 | > 100 | > 100 | > 100 | > 100 | > 100 | > 100 | > 100 | > 100 | > 100 |  |  |  |  |  |  |  |  |  | 
11 | Nc1nc(N)c2cc(Sc3cccc(C(F)(F)F)c3)ccc2n1 | 19.8 | 1.33 | 9.54 | 1.92 | 11.3 | 2.21 | 16.4 | 4.77 | 16.3 | 4.55 |  |  |  |  |  |  |  |  |  | 0.713
12 | COc1cc(/C=C/c2cc(/C=C/c3ccc(O)c(OC)c3)n(C(=O)Nc3ccc(Cl)cc3)n2)ccc1O | 9.62 | 2.54 | 7.04 | 1.34 | 1.84 | 1.4 | 2.36 | 1.85 | 7.52 | 3.31 | 1.61 | 0.354 | 2.14 | 0.306 | 0.354 | 0.37 | 0.494 | 0.327 | 2.47 | 0.641
13 | Cc1cccc(NC(=O)/C=C/c2ccc([N+](=O)[O-])cc2)c1 | > 56.5 | > 52.9 | 50.7 | > 100 | > 52.8 | > 59.4 | 31.7 | > 64.5 | > 57 | > 53.7 |  |  |  |  |  |  |  |  |  | 
14 | O=C1C2C3C=C4c5ccccc5N(c5ccccc5)C4(C2C(=O)N1c1ccc(Br)cc1)[C@H]1C(=O)N(c2ccc(Br)cc2)C(=O)[C@@H]31 (stereo partly specified) | > 100 | > 100 | > 100 | > 100 | > 100 | > 100 | > 100 | > 100 | > 100 | > 100 |  |  |  |  |  |  |  |  |  | 
15 | N#Cc1c(N)nc(NCc2ccccc2)c(C#N)c1-c1ccc(Cl)cc1Cl | > 100 | > 100 | > 100 | > 100 | > 100 | > 100 | > 100 | > 100 | > 100 | > 100 | > 100 | > 100 | 1.12 | > 100 | > 84.5 | > 53.4 | > 76.1 | > 69.4 | 96.9 | > 67
16 | O=S(=O)(Nc1ccc(F)c(Cl)c1)c1ccc(-c2cnc(C3CC3)o2)cc1 | 11.9 | 10.4 | 3.94 | > 52.8 | 9.3 | 7.13 | 11.3 | 4.29 | 13.4 | 14.6 | 0.609 | 0.334 | 0.367 | 0.0623 | 0.151 | 0.264 | 0.593 | 0.377 | 0.798 | 0.588

From PubChem BioAssay (NCI)
